# Reference: US20070191462A1, “Combination of A 5-HT(1) Receptor Agonist and an Alpha-2-Delta Ligand for the Treatment of Migraine” (Pfizer Limited, priority 2004, published 2007)
# Test system: 2nd sensory neuron in the trigeminal nucleus caudalis (TNC)
# Test: rat model of migraine: sensitization induced by inflammatory soup applied to the dura, monitored by electrophysiology in the TNC
# Type: in vivo
# Details: eletriptan given 3 hours after inflammatory soup on the dura; observed as late as 5.5 hours after sensitization
structure (smiles),measurement,value
CN1CCC[C@@H]1Cc1c[nH]c2ccc(CCS(=O)(=O)c3ccccc3)cc12 [eletriptan],reversal of sensitization of responses to sensory stimuli (brush and pin),did not reverse the sensitization
